# Like-named read-outs stand apart in the source and are kept apart here.
# Tests used:
# [1] = ref DrugBank; cited from earlier work
# HEC-1A cells = test: Cell-associated drug and distribution between apical and basolateral compartments after absorptive permeability assay; assay type: in vitro ADME, human;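 note: transwell transport run over 2 h at 37 °C, radiolabelled drug quantified by liquid scintillation counting, with insert membranes also counted for mass balance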
# [2] = Bi-directional permeability (Papp) across HEC-1A dual chamber (Transwell) barrier model; assay type: in vitro ADME; conditions: human; for Papp A→B at 2 h: read-out: Absorptive permeability Papp
# Method: The apical chambers of 12-well polycarbonate and polyester systems (Corning Costar Corp, Cambridge, UK) were seeded with different densities of HEC-1A cells in 500 µL of the medium while 1500 µL culture medium was added to the basolateral chamber. -Medium in both chambers was changed every 48–72 h.
# HEC-1A monolayer = test: Darunavir transfer across low-pH-adapted HEC-1A monolayers at apical pH 7.5 or 5.5 (LC-MS/MS); assay type: in vitro ADME, human; conditions: 2 h, n = 10
# in vitro = conditions: human, pH 7.4
# HEC-1A cell layers [3] = system: HEC-1A cell layers
# HEC-1A cell layers [4] = test: Permeability across HEC-1A cell layers stimulated with poly(I:C); conditions: p > 0.05, ANOVA
# HEC-1A barrier model = test: Permeability of labelled drug across HEC-1A model on coadministration with a second ARV; assay type: in vitro ADME, human; conditions: labelled drug 10 µM
# [5] = Cell-associated drug and distribution between apical and basolateral compartments after absorptive permeability assay; assay type: in vitro ADME, human; conditions: human, pH 7.4; 0.2% Poloxamer in receiver; read-out: Recovery from the apical compartment;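 note: transwell transport run over 2 h at 37 °C, radiolabelled drug quantified by liquid scintillation counting, with insert membranes also counted for mass balance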
structure (smiles),measurement,setting,value
"CC(C)CN(C[C@@H](O)[C@H](Cc1ccccc1)NC(=O)O[C@H]1CO[C@H]2OCC[C@H]21)S(=O)(=O)c1ccc(N)cc1 [darunavir, Darunavir]",logP,[1],2.82
same,% Drug Distribution Apical,HEC-1A cells; 1 μM,82.90 ± 1.76%
same,% Drug Distribution Basolateral,HEC-1A cells; 1 μM,15.13 ± 1.44%
same,% Drug Distribution Apical,HEC-1A cells; 5 μM,83.15 ± 2.61%
same,% Drug Distribution Basolateral,HEC-1A cells; 5 μM,14.55 ± 1.88%
same,% Drug Distribution Cell-Associated,HEC-1A cells; 5 μM,2.55 ± 1.22%
same,% Drug Distribution Apical,HEC-1A cells; 10 μM,83.36 ± 2.12%
same,% Drug Distribution Basolateral,HEC-1A cells; 10 μM,13.95 ± 1.75%
same,% Drug Distribution Cell-Associated,HEC-1A cells; 10 μM,2.70 ± 1.31%
same,% Drug Distribution Apical,HEC-1A cells; 20 μM,81.72 ± 1.61%
same,% Drug Distribution Basolateral,HEC-1A cells; 20 μM,15.31 ± 1.22%
same,% Drug Distribution Cell-Associated,HEC-1A cells; 20 μM,2.97 ± 1.27%
same,Cell-associated drug (HEC-1A cells),HEC-1A cells; after absorptive permeability assays,≤ 3%
same,Papp A→B at 2 h,[2]; pH 7.4,9.66 to 11.2 ×10⁻⁶ cm/s
same,Papp B→A at 2 h,"[2]; pH 7.4, read-out: Secretory permeability Papp",8.59 to 9.42 ×10⁻⁶ cm/s
same,"% of darunavir transferred to the receiver compartment, absorptive direction","HEC-1A monolayer; apical pH 5.5, basal pH 7.5, p < 0.001",30.1 ± 6.0%
same,"% of darunavir transferred to the receiver compartment, absorptive direction",HEC-1A monolayer; apical pH 7.5,20 ±2.8%
same,"Papp at 2 h, 10 µM",in vitro,8.24 ± 0.6 ×10⁻⁶ cm/s
same,Papp,HEC-1A cell layers [3],8.45 ± 0.68 ×10⁻⁶ cm/s
same,"Difference in Papp (A-B or B-A), poly(I:C)-stimulated vs unstimulated cell layers",HEC-1A cell layers [4],no significant differences
same,Absorptive permeability on coadministration with dapivirine,HEC-1A barrier model; dapivirine 0–10 µM,not altered
same,Permeabilities on coadministration with tenofovir,HEC-1A barrier model; tenofovir 0–100 µM,no effect
"Cc1cc(C)c(Nc2ccnc(Nc3ccc(C#N)cc3)n2)c(C)c1 [dapivirine, Dapivirine]",logP,[1],5.6
same,% Drug Distribution Apical,HEC-1A cells; 0.1 μM,15.04 ± 0.55%
same,% Drug Distribution Basolateral,HEC-1A cells; 0.1 μM,2.87 ± 0.26%
same,% Drug Distribution Cell-Associated,HEC-1A cells; 0.1 μM,82.10 ± 0.30%
same,% Drug Distribution Apical,HEC-1A cells; 0.1 μM + Poloxamer,16.06 ± 3.26%
same,% Drug Distribution Basolateral,HEC-1A cells; 0.1 μM + Poloxamer,10.56 ± 1.26%
same,% Drug Distribution Cell-Associated,HEC-1A cells; 0.1 μM + Poloxamer,73.37 ± 3.37%
same,% Drug Distribution Apical,HEC-1A cells; 1 μM,14.72 ± 0.10%
same,% Drug Distribution Basolateral,HEC-1A cells; 1 μM,2.13 ± 0.33%
same,% Drug Distribution Cell-Associated,HEC-1A cells; 1 μM,83.15 ± 0.35%
same,% Drug Distribution Apical,HEC-1A cells; 1 μM + Poloxamer,16.47 ± 2.86%
same,% Drug Distribution Basolateral,HEC-1A cells; 1 μM + Poloxamer,11.01 ± 1.41%
same,% Drug Distribution Cell-Associated,HEC-1A cells; 1 μM + Poloxamer,72.51 ± 2.86%
same,% Drug Distribution Apical,HEC-1A cells; 5 μM,14.98 ± 0.76%
same,% Drug Distribution Basolateral,HEC-1A cells; 5 μM,1.86 ± 0.41%
same,% Drug Distribution Cell-Associated,HEC-1A cells; 5 μM,83.16 ± 1.15%
same,% Drug Distribution Apical,HEC-1A cells; 5 μM + Poloxamer,17.47± 2.76%
same,% Drug Distribution Basolateral,HEC-1A cells; 5 μM + Poloxamer,10.78 ± 1.18%
same,% Drug Distribution Cell-Associated,HEC-1A cells; 5 μM + Poloxamer,71.75 ± 2.33%
same,% Drug Distribution Apical,HEC-1A cells; 10 μM,14.52 ± 0.45%
same,% Drug Distribution Basolateral,HEC-1A cells; 10 μM,2.09 ± 0.18%
same,% Drug Distribution Cell-Associated,HEC-1A cells; 10 μM,83.39 ± 0.55%
same,% Drug Distribution Apical,HEC-1A cells; 10 μM + Poloxamer,17.59 ± 3.41%
same,% Drug Distribution Basolateral,HEC-1A cells; 10 μM + Poloxamer,11.72 ± 1.34%
same,% Drug Distribution Cell-Associated,HEC-1A cells; 10 μM + Poloxamer,70.69 ± 2.76%
same,Recovery from the apical compartment after absorptive permeability assays,"HEC-1A cells; % of initial concentration, no Poloxamer",15–16%
same,recovery at 2 h,[5],19 to 21%
same,Papp A→B at 2 h,"[2]; pH 7.4, dapivirine 0.1–10 µM in 1% DMSO, 0.2% (w/v) Poloxamer in basolateral receiver",9.52 to 11.5 ×10⁻⁶ cm/s
same,Papp A→B at 2 h,"[2]; pH 7.4, dapivirine 0.1–10 µM in 1% DMSO, no Poloxamer in receiver",2.5 to 2.61 ×10⁻⁶ cm/s
same,Absorptive permeability on coadministration with tenofovir or darunavir,HEC-1A barrier model,not affected

# Source: article PMC9504208, “Comprehensive Study of Antiretroviral Drug Permeability at the Cervicovaginal Mucosa via an In Vitro Model” (Pharmaceutics, 2022)
